± gives the expanded uncertainty stated by the source.
Details: Crystal; DTA

SMILES	Normal melting temperature
CC(=O)O [acetic acid]	16.80 ± 6 °C
CCCC(=O)O [butanoic acid]	-4.50 ± 4 °C
O=CO [formic acid]	9.70 ± 8 °C
CCC(=O)O [propanoic acid]	-21.20 ± 2 °C
O [water]	0.00 ± 2 °C
